In patent US12329738B2, “Urolithin A and a composition containing same for external use in inflammations of various etiologies” (WARSZAWSKI UNIWERSYTET MEDYCZNY, priority 2018, dated 2025):

Legend:
[1] = tested on: mRNA for TNF-alpha; assay: TNF-alpha mRNA expression in THP-1 derived macrophages (real time PCR); type: cell-based, human; settings: 40 μM; LPS stimulation; FIG. 14
Description: Monocytes of the THP-1 line were cultured in RPMI 1640 medium supplemented with 10% FBS and 2 mM glutamine. For transformation of monocytes into macrophages, the cells were treated with 12.5 ng/mL PMA (phorbol 12-myristate 13-acetate) for 48 hours, then washed and incubated for 24 hours in a culture medium without PMA. After this time, urolithin A, urolithin B, iso-urolithin A and the corresponding glucuronides (GUA, GUB and GiUA) were added to the cells at a concentration of 40 μM. After 1 hour of incubation with the compounds, the cells were stimulated with LPS from Escherichia coli (10 ng/mL).
To assess the level of TNF-alpha production, the cells were incubated for 6 hours, to assess the expression of mRNA for TNF-alpha, the cells were incubated for 24 hours, to assess the effect on ERK1/2 phosphorylation, the cells were incubated for 35 minutes.
The level of TNF-alpha in the culture medium was determined using the immunochemical ELISA method (BD biosciences). Evaluation of the expression of mRNA for TNF-alpha was performed using real time PCR. After 24 hours of incubation, RNA was isolated using NucleoSpin RNA Clean-up (Macherey-Nagel). The amount and quality of isolated RNA was determined using 2100 Bioanalyzer (Agilent Technologies). The expression level of mRNA for TNF-α was determined using Brilliant II SYBR Green QPCR Kit and Aria Mx Real-Time PCR thermocycler (Agilent Technologies). The following were used as primers for TNF-alpha: forward: 5′-[…]-3′, reverse: 5′-[…]-3′. Beta-actin (ACTB) was used as the housekeeping gene; primer forward: 5′-[…]-3′, reverse: 5′-[…]-3′).
The obtained results of experiments on in vitro models were analyzed using the Statistica 13 program (StatSoft, Inc., Tulsa, OK, USA) and presented as mean values±SEM. Statistical significance was set at P≤0.05. The results with established normal distribution in the D'Agostin and Pearson test were prepared using analysis of variance (ANOVA). Parametric post-hoc analysis was performed using Dunnett's test.

[2] = tested on: carrageenan-induced paw edema in mice; settings: oral administration one hour after induction of edema, next 24 hours; cited from earlier work
[3] = tested on: S100A8/A9 protein (calprotectin); assay: Extracellular S100A8/A9 level, LPS-stimulated human neutrophils (ELISA); type: cell-based; settings: 40, 10 and 1 μM; LPS 10 ng/mL; 30 min; concentration dependent
Description: In order to comparatively study the biological activity of urolithins and their derivatives, these compounds were obtained by chemical synthesis, and then their activity against release of calprotectin by stimulated neutrophils was examined. Peripheral blood was collected from healthy donors (aged 20-35) at the Regional Blood Donation and Blood Treatment Center (Regionalne Centrum Krwiodawstwa i Krwiolecznictwa) in Warsaw. The study was conducted in accordance with the principles of the Declaration of Helsinki. […] Neutrophils were isolated using a standard method (Piwowarski et al., 2014a). Neutrophils were then suspended in HBSS. 50 μL of urolithin A, urolithin B or iso-urolitin A at the appropriate concentration (to achieve final concentrations of 40, 10 and 1 μM) and 10 μL of LPS solution (final concentration of 10 ng/mL) were added to 440 μl of cell suspension (3×10^5 cells/mL). Cells were incubated at 37° C. for 30 min, then centrifuged at 4° C., 400 rcf for 10 min. The experiment was carried out on blood samples taken from 4 different donors in duplicates. The effect of urolithins on the production of S100A8/A9 was determined using the immunochemical ELISA method (R&D Systems).
The obtained results of experiments on in vitro models were analyzed using the Statistica 13 program (StatSoft, Inc., Tulsa, OK, USA) and presented as mean values±SEM. […]

[4] = tested on: Wistar rats (DNCB-induced atopic dermatitis); assay: Pruritus level (scratch reflexes) in DNCB-induced atopic dermatitis rat model; type: in vivo
Description: Wistar rats aged 5-6 weeks (at the start of the experiment) kept under standard conditions with free access to feed and water were used for the tests. The animals were divided into 5 groups, 8 individuals in each group. To prepare 2,4-dinitrochlorobenzene (DNCB) composition inducing inflammation, DNCB was dissolved in 70% ethanol to a final concentration of 1.5% (w/v). Therapeutic composition was an ointment based on white petrolatum with 0.2% or 1.0% urolithin A added. The control ointment was white petrolatum without addition of urolithin A. The induction of chronic atopic dermatitis involved local 9-fold infiltration with 60 μl 1.5% 2,4-dinitrochlorobenzene (DNCB) on each (external and internal) surface of the right ear over 3 weeks (3 times a week). Negative control was the right ear of rats without induction inflammation. Treatment of atopic dermatitis with 0.2% or 1.0% urolithin composition and white petrolatum (control) or 1.0% hydrocortisone composition (positive control) was started eight days after sensitization—one day before the fourth application of DNCB. Ointments with appropriate for given group drug added were applied in a total volume of about 20 μl to each ear surface one day before and 6 hours after each DNCB application (for a period of 3 weeks). The negative control group consisted of rats without induced inflammation and treated with white petrolatum in a regimen analogous to the composition of urolithin A or hydrocortisone. Measurement of pruritus level (as measured by scratching reflexes) was evaluated as the total frequency of scratch reflexes during 10 minutes immediately after DNCB application on days 0, 4, 8, 12, 16, 20, 24, 28 and 32 of the experiment). Scratching was defined as a single or series of several reflexes of scratching with a paw directed at the site of DNCB application. The experimental results obtained were analyzed using the Statistica 7.1 program (StatSoft, Inc., Tulsa, OK, USA) and presented as mean values±SE. Statistical significance was set at P≤0.05. The results with established normal distribution in the D'Agostin and Pearson test were prepared using two- or three-factor analysis of variance (ANOVA). Parametric post-hoc analysis for individual time points was performed using the Bonferroni test.

[5] = tested on: hyaluronidase; assay: Hyaluronidase activity, pharmacopoeial method (USP); type: biochemical; settings: experiments by the inventors
Text: US application US2010323985A discloses the use of a compound from the group of urolithins, urolithin B, as a component of a pharmaceutical or cosmetic preparation for topical and/or parenteral use. […] Urolithin B has been indicated as an example of one of hyaluronic acid degradation inhibitors, alone or in a mixture. With respect to the above, the inventors conducted experiments according to the pharmacopoeial method (USP), observing as a result no effect of urolithin A on hyaluronidase activity. […] Also, in the case of psoriasis, research is currently underway on effectiveness of hyaluronidase subcutaneous injections ([…] preparation; https://clinicaltrials.gov/ct2/show/NCT01987609).

[6] = Local application of urolithin A ointment on skin by volunteers; type: in vivo, human; settings: 1.0% urolithin A ointment in white petrolatum, 20 mg per 4 cm^2 once a day for two weeks
Description: The therapeutic composition was an ointment prepared on the base of white petrolatum with 1.0% urolithin A added. The control ointment was white petrolatum without the addition of urolithin A. 1.0% urolithin A composition and the carrier—white petrolatum was applied on washed and dried skin by volunteers themselves, at a dose of 20 mg ointment per surface 4 cm^2 daily, once a day for two weeks.
The following parameters were taken into account in the study: feeling of discomfort after application of the composition on the skin, ease of application, discoloration of the skin at the site of application, redness of the skin at the site of application of the composition, degree of drying of the treated area of the skin, sensation of pinching, burning, itching and other types of discomfort. Participants in the study determined their level of satisfaction/dissatisfaction on a 10-point scale, 0 being dissatisfaction and 10 being satisfaction with the pharmaceutical composition of the present invention.

O=c1oc2cc(O)ccc2c2ccc(O)cc12 [urolithin A]
TNF-alpha mRNA expression in THP-1 derived macrophages [1]: inhibitory effect on TNF-alpha mRNA expression | Carrageenan-induced paw edema size [2]: significantly reduced its size | Extracellular level of S100A8/A9 protein (calprotectin) [3]: significant decrease | Inhibition of scratching reflexes, comparison of urolithin doses with each other ([4]; 0.2% vs 1%, p<0.05): more effective at a concentration of 1% | Reduction in scratching rate, urolithin vs. hydrocortisone ([4]; overall effect, p<0.05): stronger | Scratching rate (frequency of scratch reflexes) ([4]; topical ointment, urolithin A 0.2 and 1.0% (p<0.001), hydrocortisone 1% (p<0.01)): reduction in scratching rate | Inhibition of scratching reflexes compared to hydrocortisone 1% ([4]; urolithin A 0.2% ointment, p=0.39): absence of significantly greater efficiency | Inhibition of scratching reflexes compared to hydrocortisone 1% ([4]; urolithin A 1% ointment, p<0.05): significantly greater inhibition of scratching reflexes compared to hydrocortisone | Effect on hyaluronidase activity [5]: no effect | Adverse effects after skin application [6]: did not cause any adverse effects
